SMILES strings stand for the structures.

From patent US10130590B2, “Methods of treating cancer with atovaquone-related compounds” (DANA-FARBER CANCER INSTITUTE, INC., priority 2013, dated 2018) come the findings set out here.

The test system of assay [1] is K562 and U266 cells. Kind of assay: Gene expression microarrays and qRT-PCR for atovaquone-induced genes. Format: cell-based. How it is done:
Gene expression was analyzed in triplicate, normalized by 18S rRNA, and expressed as mean±SEM. For gene expression microarrays, RNA was isolated by Trizol, purified further on RNeasy columns, and profiled using Affymetrix Human Gene 1.0 ST arrays (Affymetrix). Results were deposited under GEO Accession: GSE46575.
To discover the gene whose induction by atovaquone was responsible for mTOR inhibition, gene expression microarrays were performed in K562 and U266 cells. It was reasoned that induction of the causative factor must be common to all cell lines in which atovaquone inhibits the mTOR pathway. […] Of these, REDD1 is a known negative regulator of mTOR, whose activity is dependent on the TSC1/2-complex.

Assay [2] has as its system INA-6 cells. Kind of assay: Cell viability (Cell Titer Glo), INA-6. Format: cell-based. Conditions: 72 hours. How it is done:
Western blotting was performed as previously described (Battle T E, Arbiser J, & Frank D A (2005) The natural product honokiol induces caspase dependent apoptosis in B-cell chronic lymphocytic leukemia (B-CLL) cells. Blood 106(2):690-697). Antibodies to phospho-MAPK (9101), total MAPK (9102), phospho-Y705 STAT3 (9131), phospho-S6 (2215), total S6 (2217), phospho-4E-BP1 (9451), total 4E-BP1 (9644), total RSK (9355), phospho-S6K (9234, 85 used at 1:5000), total S6K (2708), phospho-eIF2α (9721, used at 1:1000), total eIF2α (5324), ATF4 (11815, used at 1:1000), PDGFRβ (3169), IGF1Rβ (9750), EGFR (2232), and HER2 (2242) were from Cell Signaling Technology. Phospho-RSK antibody was from R&D (AF889). Antibodies to total STAT3 (sc-482) and gp130 (sc-656, used at 1:1000) were from Santa Cruz Biotechnology. Phospho-S727 STAT3 antibody was described previously (229). REDD1 antibody was from Proteintech (10638-1-AP, used at 1:1000). Antibody recognizing full-length and cleaved ATF6 was from Abcam (ab122897, used at 1:1000). Antibodies to tubulin (T5168) and beta actin (A5316) were from Sigma. All antibodies were used at 1:10000 dilution for western blot unless otherwise noted. […] Cell viability was measured as ATP-dependent luminescence by Cell Titer Glo (Promega). […]

Assay [3] concerns U266 cells. Kind of assay: Viability of U266 cells grown in patient serum. Format: cell-based, human. The conditions noted are these: serum approximately 100 days following HSCT; compared to serum of patients receiving TMP-SMX; 4 days. How it is done: FIG. 43 contains a dot plot quantifying viability of U266 cancer cells grown for 4 days in serum from patients taking trimethoprim/sulfamethoxazole (TMP/SMX) or atovaquone; the indicated p-value was determined using the two-sample t-test.
The patient population consisted of AML patients treated with HSCT at the Dana-Farber Cancer Institute and who survived at least 150 days after transplant without relapse. Patients treated with atovaquone for at least 100 days within the 150-day period were classified as “high atovaquone” exposure, while the remaining patients were classified as “low atovaquone” exposure. […] To further investigate the anti-cancer activity of atovaquone in patients, serum samples were collected from patients approximately 100 days following HSCT who were being treated with either TMP-SMX or atovaquone. […] Atovaquone is a colored compound, and its presence in patient plasma is visibly noticeable.

Take `O=C1C(O)=C([C@H]2CC[C@H](c3ccc(Cl)cc3)CC2)C(=O)c2ccccc21` [atovaquone, trans-2-[4-(4-chlorophenyl)cyclohexyl]-3-hydroxy-1,4-naphthalenedione]: in assay [1], the REDD1 expression result is “inducing the expression of REDD1”. Besides, the “viability of INA-6 cells at higher doses” value in assay [2] was “complete loss of viability”. In addition, the concentration for half-maximal inhibition (IC50) in assay [2] (INA-6) was 11.9 µM. Further, the “viability of U266 cells in serum from treated patients” value in assay [3] is listed as “reduced the viability of U266 cells”.
